Drawing on US9718790B2, “Triazine derivative and pharmaceutical composition having an analgesic activity comprising the same” (SHIONOGI & CO., LTD., priority 2010, dated 2017), this text covers IC50 for 57 molecules.

In the first test the target is human P2X3 receptor (Homo sapiens (Human), UniProt P56373). In words: Evaluation of human P2X3 receptor inhibitory activity (Fluo-3 calcium fluorescence, FDSS 3000, ATP stimulation).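 Further: stimulus was 50 nM ATP with fluorescence followed for 3 min, and the response per well was peak post-ATP fluorescence divided by the reading at measurement start.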 The format is cell-based. To be noted: C6BU-1 cells stably expressing human P2X3 receptor.
Chain of human P2X3 receptor (P56373 whole entry): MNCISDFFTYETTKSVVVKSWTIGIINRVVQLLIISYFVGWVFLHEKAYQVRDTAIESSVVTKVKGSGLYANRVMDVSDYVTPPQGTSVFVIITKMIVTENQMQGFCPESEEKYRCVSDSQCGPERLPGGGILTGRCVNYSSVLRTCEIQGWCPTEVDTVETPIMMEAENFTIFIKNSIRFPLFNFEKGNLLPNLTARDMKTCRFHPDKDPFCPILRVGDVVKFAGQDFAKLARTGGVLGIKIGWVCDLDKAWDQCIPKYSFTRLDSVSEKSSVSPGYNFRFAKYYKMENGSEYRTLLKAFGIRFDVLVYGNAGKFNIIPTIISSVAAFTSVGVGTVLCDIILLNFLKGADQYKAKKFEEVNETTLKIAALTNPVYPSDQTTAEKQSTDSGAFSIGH
Turning to `COC(=O)C[C@@H](C)Cn1c(=O)[nH]/c(=N\c2ccc(OC(C)C)c(C)c2)n(Cc2ccc(Cl)cc2)c1=O` [Compound I-0761], the IC50 amounted to 15 nM.

As for `CCCc1ccc(/N=c2\[nH]c(=O)n(C[C@H](C)C(=O)O)c(=O)n2Cc2ccc(Cl)cc2)cc1OC` [Compound I-1354], the IC50 was determined as 139 nM.

As for `CCn1c(=O)[nH]/c(=N\c2ccc(Oc3ccc(C(=O)OC)nc3)cc2)n(Cc2ccc(C)cc2)c1=O` [Compound I-2106], the IC50 stood at 2 nM. Take `CCOC(=O)[C@H](CCn1c(=O)[nH]/c(=N\c2ccc(OC(C)C)c(C)c2)n(Cc2ccc(Cl)cc2)c1=O)NC(=O)OC(C)(C)C` [Compound I-0717, (S)-1-(4-chlorobenzyl)-3-(3-t-butoxycarbonylamino-3-ethoxycarbonyl-propyl)-6-(3-mehyl-4-isopropoxyphenylimino)-1,3,5-triazinane-2,4-dion]: the IC50 amounted to 21 nM. Same read-out and setting: in the case of `CCOC(=O)CCn1c(=O)[nH]/c(=N\c2ccc(OC3CCC3)c(Cl)c2)n(Cc2ccc(C)cc2)c1=O` [Compound I-1328] it was 12 nM.

On to `COC(=O)[C@@H](C)[C@@H](C)n1c(=O)[nH]/c(=N\c2ccc(N3CCCCC3)cc2)n(Cc2ccc(Cl)cc2)c1=O` [Compound I-1454], for which the IC50 was 23 nM. Same read-out and setting: in the case of `CCOC(=O)CCn1c(=O)[nH]/c(=N\c2ccc(Oc3cccnc3)cc2)n(Cc2ccc(Cl)cc2)c1=O` [Compound I-1204] it was 5 nM; in that of `CC(C)Oc1ccc(/N=c2\[nH]c(=O)n(Cc3ccc(=O)[nH]c3)c(=O)n2Cc2ccc(Cl)cc2)cc1F` [Compound I-0649], 21 nM; in that of `Cc1oc2ccc(/N=c3\[nH]c(=O)n(CCCOC4CCCCO4)c(=O)n3Cc3ccc(Cl)cc3)cc2c1C` (stereo not drawn) [Compound I-2073], 10 nM.

For the molecule `C[C@@H](C(=O)O)[C@H](C)n1c(=O)[nH]/c(=N\c2ccc(Oc3cccnc3)cc2)n(Cc2ccc(Cl)cc2)c1=O` [Compound I-1390], the IC50 amounted to 15 nM. Take `COC(=O)C(C)(C)Cn1c(=O)[nH]/c(=N\c2ccc(OCC3CC3)cc2)n(Cc2ccc(Cl)cc2)c1=O` [Compound I-1236]: the IC50 was 13 nM.

As for `COC(=O)[C@@H](C)Cn1c(=O)[nH]/c(=N\c2ccc(OCC(C)C)cc2)n(Cc2ccc(Cl)cc2)c1=O` [Compound I-0749], the IC50 worked out at 27 nM. In the case of `Cc1[nH]c2ccc(/N=c3\[nH]c(=O)n(CCCO)c(=O)n3Cc3ccc(Cl)cc3)cc2c1C` [Compound I-1949], the IC50 was determined as 5 nM. The same measure, in the same setting: the figure for `CC(C)Oc1ccc(/N=c2\[nH]c(=O)n(CCCN/C(=N\C#N)Oc3ccccc3)c(=O)n2Cc2ccc(Cl)cc2)cc1F` [Compound I-0613] is 11 nM.

Turning to `CCCOc1ccc(/N=c2\[nH]c(=O)n(C[C@H](C)C(=O)O)c(=O)n2Cc2ccc(Cl)cc2)cc1Cl` [Compound I-0747], the IC50 is 12 nM. The same measure, in the same setting: in the case of `COC(=O)[C@@H](C)Cn1c(=O)[nH]/c(=N\c2ccc3nc(C)oc3c2)n(Cc2ccc(C)cc2)c1=O` [Compound I-1276] it was 78 nM. With `CCOc1ccc(/N=c2\[nH]c(=O)n(C[C@H](C)C(=O)O)c(=O)n2Cc2ccc(C)cc2)cc1Cl` [Compound I-0682], the IC50 amounted to 23 nM. The same measure, in the same setting: the figure for `COC(=O)[C@@H](C)Cn1c(=O)[nH]/c(=N\c2ccc(C=C(C)C)nc2)n(Cc2ccc(C)cc2)c1=O` [Compound I-1301] is 514 nM.

The test is the same for the next values; noted with them: C6BU-1 cells stably expressing human P2X3 receptor, Fluo-3 fluorescence, FDSS 3000.
As to `CCCc1nc2ccc(/N=c3\[nH]c(=O)n(CCC(=O)OCC)c(=O)n3Cc3ccc(C)cc3)cc2s1` [Compound I-1558], the IC50 turned out to be 8 nM. On the same count and under the same terms, the figure for `C=C(C)c1ccc(Cn2c(=O)n(C[C@H](C)C(=O)O)c(=O)[nH]/c2=N\c2ccc(OC(C)C)c(C)c2)cc1` [Compound I-1001] is 292 nM.

Regarding `CC(C)N1C(=O)Cc2cc(/N=c3\[nH]c(=O)n([C@@H](C)[C@@H](C)C(=O)O)c(=O)n3Cc3ccc(Cl)cc3)ccc21` [Compound I-1779], the IC50 came out at 203 nM.

In the case of `CCc1nc2ccc(/N=c3\[nH]c(=O)n(CC)c(=O)n3Cc3ccc(Cl)cc3)cc2s1` [Compound I-1703], the IC50 was determined as 4 nM.

On to `C[C@@H](C(=O)O)[C@H](C)n1c(=O)[nH]/c(=N\c2ccc3c(c2)CCOC3)n(Cc2ccc(Cl)cc2)c1=O` [Compound I-1810], for which the IC50 stood at 682 nM. For the molecule `COc1ccc(Oc2ccc(/N=c3\[nH]c(=O)n(C[C@H](O)CO)c(=O)n3Cc3ccc(Cl)cc3)cc2)cn1` [Compound I-1734], the IC50 is 5 nM.

Take `CC[C@H](C)COc1ccc(/N=c2\[nH]c(=O)n(C[C@H](C)C(=O)O)c(=O)n2Cc2ccc(C)cc2)cc1` [Compound I-1059]: the IC50 was 123 nM. With `CCOc1ccc(/N=c2\[nH]c(=O)n(C[C@@H](C)C(=O)O)c(=O)n2Cc2ccc(C)cc2)cc1Cl` [Compound I-1107], the IC50 amounted to 43 nM. For `CCC[C@H](C)Oc1ccc(/N=c2\[nH]c(=O)n(CCC(=O)OCC)c(=O)n2Cc2ccc(C)cc2)cc1` [Compound I-1052], the IC50 came to 19 nM. For `COC(=O)[C@@H](C)Cn1c(=O)[nH]/c(=N\c2ccc3c(c2)CCCO3)n(Cc2ccc(Cl)cc2)c1=O` [Compound I-1102], the IC50 was 148 nM. With `CC[C@@H](C)Oc1ccc(/N=c2\[nH]c(=O)n([C@H](C)CC(=O)OC)c(=O)n2Cc2ccc(C)cc2)cc1C` [Compound I-0938], the IC50 was 35 nM. On the same count and under the same terms, the figure for `CCc1oc2ccc(/N=c3\[nH]c(=O)n(CCNC(=O)C(F)(F)F)c(=O)n3Cc3ccc(Cl)cc3)cc2c1C` [Compound I-1565] is 8 nM. Still for that read-out and setting: the figure for `C[C@@H](Cn1c(=O)[nH]/c(=N\c2ccc(OC(F)F)cc2)n(Cc2ccc(Cl)cc2)c1=O)C(=O)O` [Compound I-1162] is 179 nM; for `CCOc1ccc(Cc2nc(=O)n(C[C@H](C)C(=O)OC)c(=O)n2Cc2ccc(Cl)cc2)cc1` [Compound I-1864] it is 186 nM; for `CCc1nc2ccc(/N=c3\[nH]c(=O)n(CC(=O)OC)c(=O)n3Cc3ccc(Cl)cc3)cc2s1` [Compound I-1752] it is 4 nM.

The same test, now with this note: human P2X3 receptor, Test Example 1.
Turning to `CNC(=O)Cn1c(=O)[nH]/c(=N\c2ccc(Oc3nc(C)ns3)cc2)n(Cc2ccc(Cl)cc2)c1=O` [Compound I-2581], the IC50 came to 5 nM. In the case of `O=c1[nH]/c(=N\c2ccc(Oc3cncc(F)c3)cc2)n(Cc2ccc(Cl)cc2)c(=O)n1CCO` [Compound I-2420], the IC50 was found to be 9 nM.

Take `Cn1c(=O)[nH]/c(=N\c2ccc(Oc3ccc(C(N)=O)cn3)cc2)n(Cc2ccc(Cl)cc2)c1=O` [Compound I-2407]: the IC50 worked out at 9 nM.

For `COCCn1c(=O)[nH]/c(=N\c2ccc(Oc3cccc(C#N)n3)cc2)n(Cc2ccc(Cl)cc2)c1=O` [Compound I-2538], the IC50 was determined as 3 nM. For the molecule `CCCOc1ccc(/N=c2\[nH]c(=O)n(C[C@H](CC)C(=O)OC)c(=O)n2Cc2ccc(C)cc2)cc1` [Compound I-0883], the IC50 was found to be 24 nM.

For the molecule `CNC(=O)[C@@H](CCO)n1c(=O)[nH]/c(=N\c2ccc(OC(C)C)c(C)c2)n(Cc2ccc(Cl)cc2)c1=O` [Compound I-0870], the IC50 was 530 nM. On the same count and under the same terms, in the case of `CC(C)Cc1ccc(/N=c2\[nH]c(=O)n(C[C@H](C)C(=O)O)c(=O)n2Cc2ccc(Cl)cn2)cc1Cl` [Compound I-1540] it was 52 nM. On the same count and under the same terms, the figure for `CCn1c(=O)[nH]/c(=N\c2ccc(Oc3ccc(C(N)=O)c(F)c3)cc2)n(Cc2ccc(Cl)cc2)c1=O` [Compound I-2234] is 2 nM; for `CCn1c(=O)[nH]/c(=N\c2ccc(Oc3ccc(NCC(=O)NC)nc3)cc2)n(Cc2ccc(Cl)cc2)c1=O` [Compound I-2626] it is 5 nM; for `CCn1c(=O)[nH]/c(=N\c2ccc(Oc3ccnnc3)cc2)n(Cc2ccc(C)cc2)c1=O` [Compound I-2599] it is 4 nM.

For the molecule `CNC(=O)Cn1c(=O)[nH]/c(=N\c2ccc(Oc3ncc(C)s3)cc2)n(Cc2ccc(Cl)cc2)c1=O` [Compound I-2648], the IC50 turned out to be 14 nM. As to `CCOCc1ccc(/N=c2\[nH]c(=O)n(C[C@H](C)C(=O)O)c(=O)n2Cc2ccc(C)cc2)cc1Cl` [Compound I-1502], the IC50 is 107 nM.

Take `CCOc1ccc(/N=c2\[nH]c(=O)n(CC(F)(F)C(=O)O)c(=O)n2Cc2ccc(C)cc2)cc1Cl` [Compound I-0858]: the IC50 was 22 nM. As for `CCOC(=O)CCn1c(=O)[nH]/c(=N\c2ccc3oc(CC)c(C)c3c2)n(Cc2ccc(C)cc2)c1=O` [Compound I-1504], the IC50 is 5 nM. As to `CCn1c(=O)[nH]/c(=N\c2ccc(Oc3ncccc3C(N)=O)cc2)n(Cc2ccc(Cl)cc2)c1=O` [Compound I-2365], the IC50 was determined as 211 nM. With `COC(=O)CCn1c(=O)[nH]/c(=N\c2ccc(Oc3cccc(F)n3)cc2)n(Cc2ccc(Cl)cc2)c1=O` [Compound I-2650], the IC50 amounted to 3 nM. In the case of `Cn1c(=O)[nH]/c(=N\c2ccc(Oc3ccnc(C(N)=O)c3)cc2)n(Cc2ccc(Cl)cc2)c1=O` [Compound I-2378], the IC50 stood at 6 nM. Consider `CO/N=C/c1ccc(/N=c2\[nH]c(=O)n(C[C@H](C)C(=O)O)c(=O)n2Cc2ccc(Cl)cc2)cc1F` [Compound I-0893, (S)-1-(4-chlorobenzyl)-6-(3-fluoro-4-methoxyiminomethylphenylimino)-3-(2-hydroxycarbonylpropyl)methyl-1,3,5-triazinane-2,4-dion], for which the IC50 was 202 nM. On the same count and under the same terms, the figure for `NC(=O)Cn1c(=O)[nH]/c(=N\c2ccc(Oc3ccon3)c(F)c2)n(Cc2ccc(Cl)cc2)c1=O` [Compound I-2586] is 7 nM; for `C[C@@H](Cn1c(=O)[nH]/c(=N\c2ccc(OCC(F)F)cc2)n(Cc2ccc(Cl)cc2)c1=O)C(=O)O` [Compound I-0848] it is 60 nM. Same read-out and setting: in the case of `CC(CO)(CO)Cn1c(=O)[nH]/c(=N\c2ccc(Oc3nccs3)cc2)n(Cc2ccc(F)cc2)c1=O` [Compound I-2508] it was 13 nM. Same read-out and setting: in the case of `CCOC(=O)CCn1c(=O)[nH]/c(=N\c2ccc(Oc3ccon3)cc2)n(Cc2ccc(Cl)cc2)c1=O` [Compound I-2434] it was 4 nM; in that of `O=C(O)Cn1c(=O)[nH]/c(=N\c2ccc(Oc3ccon3)c(F)c2)n(Cc2ccc(Cl)cc2)c1=O` [Compound I-2580], 204 nM. In the case of `O=c1[nH]/c(=N\c2ccc(Oc3ncns3)cc2)n(Cc2ccc(Cl)cc2)c(=O)n1CC(CO)CO` [Compound I-2521], the IC50 turned out to be 5 nM.

By IC50 is commonly meant the concentration that gives 50% inhibition.
